Laboratory results published in the Kinase Knowledgebase extract (Sharma et al. 2016).

molecular target: EGFR (UniProt P00533); assay: Inhibition of EGFR Kinase Activity
Sequence (P00533 whole entry, looked up): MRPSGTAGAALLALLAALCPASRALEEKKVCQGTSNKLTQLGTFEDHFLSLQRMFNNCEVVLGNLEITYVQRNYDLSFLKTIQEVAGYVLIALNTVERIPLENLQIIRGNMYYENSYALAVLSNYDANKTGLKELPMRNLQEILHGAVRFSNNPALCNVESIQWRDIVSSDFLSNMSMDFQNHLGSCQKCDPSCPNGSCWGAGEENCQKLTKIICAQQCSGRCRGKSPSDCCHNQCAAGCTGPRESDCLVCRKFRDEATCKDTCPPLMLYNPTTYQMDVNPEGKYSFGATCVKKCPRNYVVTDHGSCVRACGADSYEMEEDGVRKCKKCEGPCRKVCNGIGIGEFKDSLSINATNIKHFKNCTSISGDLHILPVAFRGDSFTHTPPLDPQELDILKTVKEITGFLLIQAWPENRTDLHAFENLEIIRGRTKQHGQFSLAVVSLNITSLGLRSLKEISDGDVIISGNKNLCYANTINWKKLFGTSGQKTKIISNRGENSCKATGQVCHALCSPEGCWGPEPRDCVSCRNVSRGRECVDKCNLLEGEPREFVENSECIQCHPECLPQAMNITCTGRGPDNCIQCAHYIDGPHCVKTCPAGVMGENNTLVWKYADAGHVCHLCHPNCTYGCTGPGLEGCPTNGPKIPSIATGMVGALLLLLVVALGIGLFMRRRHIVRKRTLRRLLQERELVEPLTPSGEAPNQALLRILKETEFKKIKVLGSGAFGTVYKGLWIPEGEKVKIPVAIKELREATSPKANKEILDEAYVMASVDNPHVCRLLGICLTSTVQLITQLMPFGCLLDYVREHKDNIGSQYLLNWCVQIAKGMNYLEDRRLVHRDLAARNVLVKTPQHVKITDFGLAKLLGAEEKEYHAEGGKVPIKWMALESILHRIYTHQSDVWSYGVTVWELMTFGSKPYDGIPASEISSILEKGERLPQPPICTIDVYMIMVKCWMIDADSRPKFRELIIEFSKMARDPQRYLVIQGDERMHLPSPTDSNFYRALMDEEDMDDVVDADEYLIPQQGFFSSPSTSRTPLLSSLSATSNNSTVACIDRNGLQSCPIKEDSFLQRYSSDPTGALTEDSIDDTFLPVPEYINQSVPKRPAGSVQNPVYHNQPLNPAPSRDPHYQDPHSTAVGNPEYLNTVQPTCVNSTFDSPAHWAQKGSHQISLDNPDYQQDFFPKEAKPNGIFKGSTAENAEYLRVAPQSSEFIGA

IC50, < 50 µM:
CC#CC(=O)Nc1cccc(Nc2ncnc(N(CC)c3ccc(OCCOC)c(OC)c3)n2)c1, C=CC(=O)Nc1cccc(Nc2ncnc(Nc3ccc(OCc4ccccc4Br)c(Cl)c3)n2)c1, C=CC(=O)Nc1cccc(Nc2ncnc(N(CC)c3ccc(OC)c(OC)c3)n2)c1, C=CCN(c1cccc(Cl)c1)c1ncnc(Nc2ccc(NC(=O)C=C)cc2)n1, C=CCN(c1ccc(OC)c(OC)c1)c1ncnc(Nc2cccc(NC(=O)C#CC)c2)n1, C=CC(=O)Nc1cccc(Nc2ncnc(N(C)c3cccc(Cl)c3)n2)c1, CC#CC(=O)Nc1cccc(Nc2ncnc(N(CC)c3cc(OC)c(OC)c(OCCN4CCOCC4)c3)n2)c1, C=CC(=O)Nc1cc(Nc2ncnc(Nc3ccc(OCc4ccccc4)c(Cl)c3)n2)ccc1OCCCC1CCN(C)CC1, C=CCN(c1ccc(OCCOC)c(OC)c1)c1ncnc(Nc2cccc(NC(=O)C=C)c2)n1, C=CC(=O)Nc1cccc(Nc2ncnc(N(C)c3cccc(CC(=O)OC)c3)n2)c1, C=CCN(c1ccc(C(=O)OC)cc1)c1ncnc(Nc2cccc(NC(=O)C#CC)c2)n1, C/C=C/C(=O)Nc1cccc(Nc2ncnc(NC3CC3c3ccccc3)n2)c1 (stereo not given), CC#CC(=O)Nc1cccc(Nc2ncnc(N(C)c3ccc(F)c(Cl)c3)n2)c1, C=CCN(c1ccc2c(cnn2Cc2ccccc2)c1)c1ncnc(Nc2cccc(NC(=O)C=C)c2)n1, C=CC(=O)Nc1cccc(Nc2ncnc(N(C)n3c(=O)[nH]c4ccccc43)n2)c1, CC#CC(=O)Nc1cccc(Nc2ncnc(N(CC)c3ccc(OC)c(OCCOC)c3)n2)c1, CC#CC(=O)Nc1cccc(Nc2ncnc(N(CC)c3ccc(OC)c(OC)c3)n2)c1, C=CCN(c1ncnc(Nc2cccc(NC(=O)C#CC)c2)n1)c1cccc2ccccc12, C=CC(=O)Nc1ccc(Nc2ncnc(Nc3ccc(OCc4ccccc4)cc3)n2)cc1, CC#CC(=O)Nc1cc(Nc2ncnc(Nc3ccc4c(cnn4Cc4ccccc4)c3)n2)ccc1OCCCN1CCOCC1, C=CCN(c1ncnc(Nc2ccc(NC(=O)C=C)cc2)n1)C1CC1c1ccccc1 (stereo not given), C=CC(=O)Nc1cccc(Nc2ncnc(Nc3ccc4c(cnn4Cc4ccccc4)c3)n2)c1, C=CC(=O)Nc1ccc(Nc2ncnc(Nc3cccc(OCCOC)c3)n2)cc1, CC#CC(=O)Nc1cccc(Nc2ncnc(N(C)c3cccc(C)c3)n2)c1, C=CCN(c1cc(OC)c(OC)c(OCCN2CCOCC2)c1)c1ncnc(Nc2ccc(NC(=O)C=C)cc2)n1, C=CC(=O)Nc1cccc(Nc2ncnc(NN3CCCc4cc(C)ccc43)n2)c1, C=CC(=O)Nc1cccc(Nc2ncnc(NC3CC3c3ccccc3)n2)c1 (stereo not given), CC#CC(=O)Nc1cccc(Nc2ncnc(N(C)c3ccc(OCCC)c(OCCC)c3)n2)c1, C=CC(=O)Nc1cc(Nc2ncnc(Nc3ccc4c(cnn4Cc4ccccc4)c3)n2)ccc1OCCCC1CCN(C)CC1, C=CC(=O)Nc1cc(Nc2ncnc(N(C)c3cccc(Cl)c3)n2)ccc1OCCCN1CCOCC1, CC#CC(=O)Nc1cc(Nc2ncnc(N(C)c3ccc4c(cnn4Cc4ccccc4)c3)n2)ccc1OCCCN1CCOCC1, C=CC(=O)N(CCCN1CCOCC1)c2cccc(Nc3ncnc(Nc4ccc5NN(=Cc5c4)Cc6ccccn6)n3)c2, C=CCN(c1cccc(C)c1)c1ncnc(Nc2ccc(NC(=O)C=C)cc2)n1, CC#CC(=O)Nc1cccc(Nc2ncnc(N(C)c3ccc(OCc4ccccc4)c(Cl)c3)n2)c1, CC#CC(=O)Nc1cccc(Nc2ncnc(N(C)c3ccc(OCCOC)c(OC)c3)n2)c1, C=CCN(c1ncnc(Nc2cccc(NC(=O)C=C)c2)n1)C1CC1c1ccc(Cl)cc1 (stereo not given), C=CCN(c1cccc(S(=O)(=O)c2ccc([N+](=O)[O-])cc2)c1)c1ncnc(Nc2cccc(NC(=O)C#CC)c2)n1, C=CCN(c1ccc2NN(=Cc2c1)Cc3ccccn3)c4ncnc(Nc5cccc(NC(=O)C=C)c5)n4, C=CC(=O)Nc1cccc(Nc2ncnc(N(CC)c3ccc(OCCO)cc3)n2)c1, CC#CC(=O)Nc1cc(Nc2ncnc(Nc3ccc4c(cnn4Cc4ccccc4)c3)n2)ccc1OC, C=CC(=O)Nc1ccc(Nc2ncnc(N(C)c3ccc(F)c(Cl)c3)n2)cc1, CC#CC(=O)Nc1cccc(Nc2ncnc(N(CC)n3c(=O)[nH]c4ccccc43)n2)c1, C=CC(=O)Nc1cc(Nc2ncnc(N(C)c3ccc4c(ccn4Cc4ccccc4)c3)n2)ccc1OCCCN1CCOCC1, C=CC(=O)Nc1cccc(Nc2ncnc(Nc3ccc(C(=O)OC)cc3)n2)c1, C=CC(=O)Nc1cccc(Nc2ncnc(N(C)c3cccc(C(N)=O)c3)n2)c1, C=CC(=O)Nc1cccc(Nc2ncnc(Nc3cccc(C)c3)n2)c1, C=CCN(c1cccc(C)c1)c1ncnc(Nc2cccc(NC(=O)C#CC)c2)n1, C=C/C=C/C(=O)Nc1cccc(Nc2ncnc(Nc3ccc4c(ccn4Cc4ccccc4)c3)n2)c1, C=CC(=O)Nc1cccc(Nc2ncnc(N(C)c3ccc4c(ccn4Cc4ccccc4)c3)n2)c1, C=CC(=O)N(CCCN1CCOCC1)c1cccc(Nc2ncnc(NC3CC3c3ccc(Cl)cc3)n2)c1 (stereo not given), CC#CC(=O)Nc1cccc(Nc2ncnc(Nc3ccc(OCc4ccccc4)cc3)n2)c1, C/C=C/C(=O)Nc1cccc(Nc2ncnc(Nc3ccc4c(ccn4Cc4ccccc4)c3)n2)c1, C=CC(=O)Nc1cccc(Nc2ncnc(NN3CCCc4cc(Cl)ccc43)n2)c1, C=CC(=O)Nc1ccc(Nc2ncnc(N(CC)c3ccc(OCC)c(OCC)c3)n2)cc1, CC#CC(=O)Nc1cccc(Nc2ncnc(Nc3cccc(Cl)c3)n2)c1, C=CC(=O)Nc1ccc(Nc2ncnc(N(C)c3ccc(OCC)c(OCC)c3)n2)cc1, C=CCN(c1ccc(OCC)c(OCC)c1)c1ncnc(Nc2cccc(NC(=O)C=C)c2)n1, C=CC(=O)N(CCCN1CCOCC1)c1cccc(Nc2ncnc(Nc3ccc(F)c(Cl)c3)n2)c1, C=CC(=O)Nc1cccc(Nc2ncnc(N(C)C3CC3c3ccc(Cl)cc3)n2)c1 (stereo not given), C=CC(=O)Nc1cccc(Nc2ncnc(N(CC)C3CC3c3ccccc3)n2)c1 (stereo not given), C=CC(=O)Nc1ccc(Nc2ncnc(N(C)c3cc(OC)c(OC)c(OCCN4CCOCC4)c3)n2)cc1, C=CCN(c1ncnc(Nc2ccc(NC(=O)C=C)cc2)n1)n1c(=O)[nH]c2ccccc21, CC#CC(=O)Nc1cccc(Nc2ncnc(N(CC)c3cccc(Cl)c3)n2)c1, C=CC(=O)Nc1cccc(Nc2ncnc(N(C)c3ccc(OCC)c(OCC)c3)n2)c1, C=CC(=O)Nc1cccc(Nc2ncnc(Nc3ccc4c(cnn4Cc4ccccn4)c3)n2)c1, CC#CC(=O)Nc1cccc(Nc2ncnc(Nc3cc(Cl)cc4ccccc34)n2)c1, CC#CC(=O)Nc1cc(Nc2ncnc(N(C)c3ccc4c(ccn4Cc4ccccc4)c3)n2)ccc1OCCCN1CCOCC1, C=CC(=O)Nc1cccc(Nc2ncnc(Nc3ccc(OC)c(OCCOC)c3)n2)c1, C=CC(=O)Nc1cccc(Nc2ncnc(N(C)c3cc(OC)c(OC)c(OCCN4CCOCC4)c3)n2)c1, C=CC(=O)Nc1cc(Nc2ncnc(Nc3ccc4c(cnn4Cc4ccccc4)c3)n2)ccc1OCCCN1CCOCC1, C=CC(=O)Nc1cccc(Nc2ncnc(N(C)c3ccc(OCCC)c(OCCC)c3)n2)c1, CC#CC(=O)Nc1cccc(Nc2ncnc(N(C)c3ccc4c(cnn4Cc4ccccc4)c3)n2)c1, CC#CC(=O)Nc1cc(Nc2ncnc(Nc3cccc(Cl)c3)n2)ccc1OCCCN1CCOCC1, C=CC(=O)Nc1cccc(Nc2ncnc(N(CC)c3cccc(C)c3)n2)c1, C=CC(=O)Nc1ccc(Nc2ncnc(N(C)c3ccc(OCCC)c(OCCC)c3)n2)cc1, C=CCN(c1ncnc(Nc2cccc(NC(=O)C=C)c2)n1)n1c(=O)n(C(=O)C(C)(C)C)c2ccccc21, C=CC(=O)Nc1ccc(Nc2ncnc(N(C)C3CC3c3ccccc3)n2)cc1 (stereo not given), C=CC(=O)Nc1ccc(Nc2ncnc(N(CC)c3ccc(F)c(Cl)c3)n2)cc1, C=CCN(c1ccc(OC)c(OC)c1)c1ncnc(Nc2ccc(NC(=O)C=C)cc2)n1, CC#CC(=O)Nc1cccc(Nc2ncnc(Nn3c(=O)[nH]c4ccccc43)n2)c1, C=CC(=O)Nc1cccc(Nc2ncnc(N(C)c3ccc4c(cnn4Cc4ccccc4)c3)n2)c1, C=CCN(c1ncnc(Nc2ccc(NC(=O)C=C)cc2)n1)c1cc(Cl)cc2ccccc12, C=CC(=O)Nc1cccc(Nc2ncnc(N(C)c3ccc(F)c(Cl)c3)n2)c1, CC#CC(=O)Nc1cccc(Nc2ncnc(Nc3ccc4NN(=Cc4c3)Cc5ccccn5)n2)c1, CC#CC(=O)Nc1cccc(Nc2ncnc(N(C)c3cccc(CC(=O)OC)c3)n2)c1
